Patent US10441537B2, “Unit doses, aerosols, kits, and methods for treating heart conditions by pulmonary administration” (InCarda Therapeutics, Inc., priority 2017, dated 2019)
Read-outs that look alike come from different tables or passages of the source.

Legend:
healthy volunteers [1] = conditions: in vivo, iv
Experimental: (§2) 3 cohorts of subjects, in total 34 healthy adult volunteers, were recruited for Part A study.
(§3) Part B was an open label non-randomized crossover in a cohort of 6 evaluable healthy adult volunteers.
In addition, the effects of changing posture from semi-recumbent to seated upright, vice-versa and during inhalation on HR and BP were assessed (Cohort 5).

[2] = Plasma concentrations in LV, femoral vein and pulmonary artery of dogs (Example 7); format: in vivo
physchem = conditions: water
[3] = Phase 1 study: venous plasma pharmacokinetics; format: in vivo, human; conditions: for Tmax / Cmax / AUC(0-t) / half-life: venous plasma; for Dist. t1/2α, mean (CV %): both; for half-life: read-out: Elim. t1/2, mean (CV %) (converted)
Experimental: In this study, for inhalation delivery of flecainide, the estimated total lung doses (eTLDs) were calculated to account for losses of flecainide in the inhalation device and losses of flecainide in subjects' mouth and throat. eTLD was thereby used to denote the dose that actually reached the lungs of the subjects. By design, in all nebulizers there can be a residual volume or mass of drug solution that stays in the nebulizer, and there can also be a percentage of the aerosol caught by subject's throat and mouth. For instance, in this study, it was estimated that 30% of the aerosol was lost in subject's throat and mouth.

healthy volunteers [4] = test: Phase 1 study: peripheral oxygen saturation (SpO2%); format: in vivo, human; conditions: for Oxygen Saturation (SpO2%), Mean: Predose
Experimental: (§1) Pulmonary safety was assessed by performing lung spirometry tests and measuring peripheral oxygen saturation (SpO2%) prior to dosing and at various times after completion of the inhalation. Lung spirometry tests evaluated all lung function parameters, including forced vital capacity (FVC), forced expiratory volume in 1 second (FEV1), peak expiratory flow (PEF), and forced expiratory flow at 25% and 75% intervals (FEF25-75). Auscultation and respiration rate were also measured prior to dosing and at various times after inhalation. Chest x-rays were performed on subjects before and after flecainide inhalation.

healthy volunteers [5] = test: Phase 1 study: ECG pharmacodynamics (QRS, PR, QTcF, T-wave) and PK-PD; format: in vivo, human
Experimental: The ECG recordings included: 1) Continuous real-time ECG telemetry for observation of patient safety starting at 12 hours pre-dose and continuing for 12 hours post-dose, 2) 12-lead ECGs for immediate review by medical staff to ascertain the safety of the procedures and drug administration were recorded at pre-specified (or any time as needed) before dosing (pre-dose) and after dosing (post-dose), and 3) continuous 12-lead ECG (cECG, iCardiac Holter monitoring) was recorded for 24 hours, starting 1 hour prior to dosing and up to 24 hours post dosing.
As expected from non-steady state conditions, and shown in FIGS. 84A and 84B, a temporal dissociation is observed between ([Flec]plasma) and ΔQRS. […] The hysteresis between concentrations and responses (QRS) applies for both routes of administration, IV and inhalation.

healthy volunteers [6] = conditions: in vivo
Source text: as §2, §3
Adverse events were monitored and recorded.

in vivo = conditions: male, Yorkshire, pig, iv, 2 mg/kg
Experimental: The studies were carried out in male Yorkshire pigs (n=9) weighing 36±1.0 kg (mean±SEM). The pigs were pre-anesthetized with telazol (4.7 mg/kg, intramuscular) and subsequently further anesthetized using alpha-chloralose (80 mg/kg, IV bolus, followed by 24 mg/kg/h continuous IV infusion). The animals were intubated and ventilated at a constant rate of 12 breaths/min and tidal volume of 400 ml per stroke.
Simultaneous blood samples were drawn from the pigtail catheter positioned in the LV and from a catheter in the jugular vein.
The samples were centrifuged and frozen at −80° C. until drug level determination was performed using a bioanalytical assay method developed by Climax Laboratories, Inc.

healthy volunteers [7] = test: Phase 1 study: lung spirometry tests; format: in vivo, human
Experimental: as §1

## O=C(NCC1CCCCN1)c1cc(OCC(F)(F)F)ccc1OCC(F)(F)F (stereo not shown) [flecainide, flecainide acetate]
Healthy volunteers [1]
  decrease in systolic pressure: ≤ 18 mmHg
  maximal increase in HR: 7 bpm
  transient decrease in systolic pressure: 9 mmHg
Healthy volunteers [1]; 2 mg/kg
  HR: An increase in HR was observed
  systolic and diastolic BP: Decreases in systolic and diastolic BP were observed
[2]; IT
  plasma concentrations transiently higher in the LV than in the PA (summary): ~2.5 fold
[2]; IT, at the time of conversion
  plasma levels higher in the LV than in the systemic venous circulation: ~2 fold
[2]; IV infusion
  plasma concentrations transiently higher in the PA than in the LV (summary): ~3.5 fold
[2]; IV or IT
  time after administration at which LV and PA concentrations were nearly equal: 4 to 10 min
physchem
  solubility: ~30 mg/mL
[3]; IV 2 mg/Kg over 10 min, Cohort 5, n=6, 2 mg/kg
  Tmax, median (min, max): 1 (0, 60) min after EOI
[3]; Inhaled 20 mg, n=6
  Elim. t1/2β, mean (CV %): 9.87 (25) hours
[3]; Inhaled 30 mg, Cohort 5, n=6
  Tmax, median (min, max): ≤ 1 min after EOI
[3]; Inhaled 30 mg, Cohort 5, n=6, listed as Flecainide
  Tmax, median (min, max): 0.5 (0, 1) min after EOI
[3]; Inhaled 40 mg, n=8 (post-hoc)
  Elim. t1/2β, mean (CV %): 9.0 (24) hours
[3]; Inhaled 60 mg, n=7 (post-hoc)
  Elim. t1/2β, mean (CV %): 12.0 (14) hours
[3]; both sexes, human, inhaled or intranasal, 20 mg, Inhaled 20 mg, n=6, from end of inhalation, read-out: Tmax, median (min, max) (converted)
  Tmax: 1 min
[3]; both sexes, human, inhaled or intranasal, 20 mg, Inhaled 20 mg, n=6, read-out: Cmax, arithmetic mean (CV %)
  Cmax: 95.1 ng/mL
[3]; both sexes, human, inhaled or intranasal, 40 mg, Inhaled 40 mg, n=8 (post-hoc), read-out: Cmax, mean (CV %)
  Cmax: 173 ng/mL
[3]; both sexes, human, inhaled or intranasal, 40 mg, Inhaled 40 mg, n=8 (post-hoc), read-out: Tmax, median (min, max) (converted)
  Tmax: 1 min
[3]; both sexes, human, inhaled or intranasal, 60 mg, Inhaled 60 mg, n=7 (post-hoc), read-out: Cmax, mean (CV %)
  Cmax: 232 ng/mL
[3]; both sexes, human, inhaled or intranasal, 60 mg, Inhaled 60 mg, n=7 (post-hoc), read-out: Tmax, median (min, max) (converted)
  Tmax: 1 min
[3]; both sexes, human, inhaled or intranasal, 60 mg, two subjects each of 40 and 60 mg eTLD cohorts, after the end of inhalation, read-out: Tmax of the four subjects excluded post hoc
  Tmax: 20 to 240 min
[3]; both sexes, human, inhaled or intranasal, Inhaled 20 mg, n=6, read-out: AUCLast, mean (CV %)
  AUC(0-t): 421 ng·h/mL
[3]; both sexes, human, inhaled or intranasal, Inhaled 40 mg, n=8 (post-hoc), read-out: AUCLast, mean (CV %)
  AUC(0-t): 685 ng·h/mL
[3]; both sexes, human, inhaled or intranasal, Inhaled 60 mg, n=7 (post-hoc), read-out: AUCLast, mean (CV %)
  AUC(0-t): 946 ng·h/mL
[3]; both sexes, human, inhaled, 40 mg, 40 mg eTLD cohort, read-out: Cmax of the two excluded subjects
  Cmax: 70.9 ng/mL
[3]; both sexes, human, inhaled, 60 mg, 60 mg eTLD cohort, read-out: Cmax of the two excluded subjects
  Cmax: 82.3 ng/mL
[3]; human, in vivo, inhaled or intranasal, 20 mg
  Dist. t1/2α, mean (CV %): 3.86 (34) min
[3]; human, in vivo, inhaled or intranasal, 40 mg
  Dist. t1/2α, mean (CV %): 4.19 (39) min
[3]; human, in vivo, inhaled or intranasal, 60 mg
  Dist. t1/2α, mean (CV %): 3.47 (17) min
[3]; human, in vivo
  estimated t1/2α: 3.5 to 4.2 min
[3]; human, inhaled or intranasal, 30 mg, Inhaled 30 mg, Cohort 5, n=6, read-out: Cmax, mean (CV %)
  Cmax: 120 ng/mL
[3]; human, inhaled or intranasal, 30 mg, Inhaled 30 mg, Cohort 5, n=6
  half-life: 606 min
[3]; human, inhaled or intranasal, Inhaled 30 mg, Cohort 5, n=6, read-out: AUClast, mean (CV %)
  AUC(0-t): 487 ng·h/mL
[3]; human, iv, 2 mg/kg, IV 2 mg/Kg, Cohort 5, n=6, read-out: Cmax, mean (CV %)
  Cmax: 749 ng/mL
[3]; human, iv, 2 mg/kg, IV 2 mg/Kg, Cohort 5, n=6
  half-life: 600 min
[3]; human, IV 2 mg/Kg, Cohort 5, n=6, read-out: AUClast, mean (CV %)
  AUC(0-t): 3050 ng·h/mL
[3]; inhaled 30 mg eTLD vs IV 2 mg/kg (b559: IV normalized to 30 mg), Cohort 5, 2 mg/kg
  venous plasma concentration-time curves, inhaled vs IV: near-identical
[3]; inhaled 20, 30 or 40 mg eTLD
  dose proportionality of venous plasma concentrations: near dose proportionality
Healthy volunteers [4]; 20 mg eTLD, 15 min Postdose
  SpO2%, Mean: 97%
Healthy volunteers [4]; 20 mg eTLD, 30 min Postdose
  SpO2%, Mean: 97%
Healthy volunteers [4]; 20 mg eTLD, 45 min Postdose
  SpO2%, Mean: 97%
Healthy volunteers [4]; 20 mg eTLD, 60 min Postdose
  SpO2%, Mean: 97%
Healthy volunteers [4]; 20 mg eTLD, 75 min Postdose
  SpO2%, Mean: 98%
Healthy volunteers [4]; 20 mg eTLD, 90 min Postdose
  SpO2%, Mean: 98%
Healthy volunteers [4]; 20 mg eTLD, 105 min Postdose
  SpO2%, Mean: 97%
Healthy volunteers [4]; 20 mg eTLD, 120 min Postdose
  SpO2%, Mean: 98%
Healthy volunteers [4]; 40 mg eTLD, 15 min Postdose
  SpO2%, Mean: 96%
Healthy volunteers [4]; 40 mg eTLD, 30 min Postdose
  SpO2%, Mean: 97%
Healthy volunteers [4]; 40 mg eTLD, 45 min Postdose
  SpO2%, Mean: 96%
Healthy volunteers [4]; 40 mg eTLD, 60 min Postdose
  SpO2%, Mean: 96%
Healthy volunteers [4]; 40 mg eTLD, 75 min Postdose
  SpO2%, Mean: 97%
Healthy volunteers [4]; 40 mg eTLD, 90 min Postdose
  SpO2%, Mean: 97%
Healthy volunteers [4]; 40 mg eTLD, 105 min Postdose
  SpO2%, Mean: 97%
Healthy volunteers [4]; 40 mg eTLD, 120 min Postdose
  SpO2%, Mean: 97%
Healthy volunteers [4]; Cohorts 1 and 2
  pre-dose and post-dose values for SpO2 (normal range): 97-98%
Healthy volunteers [4]; inhaled 20 mg eTLD, Cohort 1 (n=6)
  Oxygen Saturation (SpO2%), Mean: 98%
Healthy volunteers [4]; inhaled 40 mg eTLD, Cohort 2 (n=10)
  Oxygen Saturation (SpO2%), Mean: 97%
Healthy volunteers [5]; 30 min after completion of inhalation, Cohorts 1-3
  QRS interval duration: returned to near pre-dose levels
Healthy volunteers [5]; IV infusion 2 mg/kg
  T-wave morphology: T-wave notching
  non-specific intraventricular conduction delay: 3 of 6 subjects
Healthy volunteers [5]; eTLD 30 mg vs ˜150 mg IV
  smaller changes in QRS interval duration, inhalation vs IV infusion: 2.7 fold
Healthy volunteers [5]; in vivo, iv
  lower plasma concentration by inhalation for QRS prolongation as after IV (6.2/2.7): 2.3 fold
Healthy volunteers [5]; inhalation 20, 30 and 40 mg eTLD
  T-wave morphology: No changes in T-wave morphology
Healthy volunteers [5]; inhalation vs IV
  lower plasma level after inhalation at near-equal ΔQRS: 2.6 fold
Healthy volunteers [5]; inhaled 20 mg eTLD, between 1 and 3 minutes after end of inhalation
  mean ΔQRS: small increase of mean ΔQRS
Healthy volunteers [5]; inhaled 30 mg eTLD, 5 min after completion of inhalation
  PR interval duration prolonged from start of inhalation: 12 ms
Healthy volunteers [5]; inhaled 40 mg eTLD, Cohort 2
  QRS duration: transient increase between 1 and 3 minutes post-dosing
Healthy volunteers [5]; inhaled 20 or 40 mg eTLD
  changes of the PR interval duration: Minimal or no changes
Healthy volunteers [5]; oral inhalation eTLD of 30 mg
  non-specific intraventricular conduction delay: not observed in any of the same subjects
Healthy volunteers [5]; subject R222, 40 mg eTLD, 3 min post-dosing
  decrease of R-wave amplitude (QRSa): 400 μV
Healthy volunteers [5]; subject R222, inhaled 40 mg eTLD, 1 minute post-dosing
  increase of QRS duration (QRSd): 10 ms
Healthy volunteers [6]; both, human
  Adverse Event: Cough: 1
  Adverse Event: Lightheadedness: 1
  study-drug related Cough: 3 events in 3/25 subjects (12%)
  study-drug related Dry mouth: 3 events in 3/25 subjects (12%)
  study-drug related Dysgeusia: 2 events in 2/25 subjects (8%)
  study-drug related Dyspnoea (shortness of breath): 4 events in 4/25 subjects (16%)
  study-drug related Oropharyngeal discomfort: 10 events in 10/25 subjects (40%)
  study-drug related dizziness: 3 events in 3/25 subjects (12%)
  study-drug related headache: 3 events in 2/25 subjects (8%)
Healthy volunteers [6]; human
  average events per subject: 2
  probably study-drug related oropharyngeal discomfort, subjects: 4
  study-drug related paresthesia oral: 3 events in 3 subjects
Healthy volunteers [6]; human, iv
  average events per subject: 7
  hypotension (systolic BP) for which the IV infusion had to be interrupted: < 65 mmHg
  severe and moderate intensity AEs probably related to the study drug: 1 severe and 2 moderate intensity AEs
  study-drug related application site coldness: 2 occurrences in 2 subjects
  study-drug related dizziness: 6 events in 6 subjects
  study-drug related headache: 5 events in 5 subjects
  study-drug related peripheral coldness, palpitations, and chest discomfort: each occurring 2 times 1 subject
Healthy volunteers [6]; human, iv, 2 mg/kg
  Number of Moderate or Severe TEAEs: 4
  Number of Related TEAEs: 35
  Number of Related, Moderate or Severe TEAEs: 4
  Number of SAEs: 0
  Number of Subjects with at least one Moderate or Severe TEAE: 2 subjects (29%) n (%)
  Number of Subjects with at least one TEAE: 7 (100) n (%)
  Number of Treatment-Emergent Adverse Events: 49
  TEAE: Chest discomfort: 3 such events also occurred in 1 subject n (%) [events]
  TEAE: Dizziness: 6 events in 6/7 subjects, 86% n (%) [events]
  TEAE: Headache: 6 events in 5/7 subjects, 71% n (%) [events]
Healthy volunteers [6]; human, po
  remaining study-drug related events (cough, dysphonia, dyspnoea, oral hypoesthesia, chest discomfort): once in 1 subject each
Healthy volunteers [6]
  serious adverse events: No serious adverse events were reported
  tolerability: well tolerated
Healthy volunteers [6]; iv, 2 mg/kg
  Number of SAEs: no SAEs reported
In vivo; LV plasma level
  concentration at 30 min: 497 ± 190 ng/mL
In vivo; Venous plasma level
  concentration at 30 min: 519 ± 196 ng/mL
Healthy volunteers [7]; 20 mg eTLD, 24 hours Post-dose
  FEF25-75, Mean: 5.40 L/s
Healthy volunteers [7]; 40 mg eTLD, 12 hours Pre-dose
  FEF25-75, Mean: 5.00 L/s
Healthy volunteers [7]; 40 mg eTLD, 24 hours Post-dose
  FEF25-75, Mean: 4.80 L/s
Healthy volunteers [7]; Cohorts 1, 2, 3 and 5
  standard lung spirometry measurements (FEV1, PEF, FVC, FEF 25-75) and peripheral O2 saturation: normal before and after
